How the values were obtained:
[1] = molecular target: T1, ABCG2 (Homo sapiens, UniProt Q9UNQ0); experiment: Mitoxantrone transport; conditions: ABCG2-overexpressing MCF7-FLV1000 cells, probe mitoxantrone (5 μM)
T1 sequence (Q9UNQ0 1-655): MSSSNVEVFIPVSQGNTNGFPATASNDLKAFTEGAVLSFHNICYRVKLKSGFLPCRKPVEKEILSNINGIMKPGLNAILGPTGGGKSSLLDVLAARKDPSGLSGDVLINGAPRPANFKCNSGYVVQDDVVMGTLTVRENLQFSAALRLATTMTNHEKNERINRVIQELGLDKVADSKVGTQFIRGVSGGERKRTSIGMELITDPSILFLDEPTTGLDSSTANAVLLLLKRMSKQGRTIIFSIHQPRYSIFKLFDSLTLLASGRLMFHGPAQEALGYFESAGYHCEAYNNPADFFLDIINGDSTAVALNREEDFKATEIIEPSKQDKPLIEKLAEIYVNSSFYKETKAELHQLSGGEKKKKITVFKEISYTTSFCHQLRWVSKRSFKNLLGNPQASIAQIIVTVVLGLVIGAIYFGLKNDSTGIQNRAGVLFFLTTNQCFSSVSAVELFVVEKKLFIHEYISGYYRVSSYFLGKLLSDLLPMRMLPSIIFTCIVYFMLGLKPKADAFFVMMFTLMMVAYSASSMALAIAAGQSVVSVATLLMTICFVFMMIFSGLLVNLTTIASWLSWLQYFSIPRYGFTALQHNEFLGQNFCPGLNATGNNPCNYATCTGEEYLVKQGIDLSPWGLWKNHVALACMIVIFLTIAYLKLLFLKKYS

[2] = molecular target: P-gp (Homo sapiens, UniProt P08183); experiment: Calcein-AM transport; conditions: P-gp-overexpressing KB-V1 cells, probe calcein-AM (0.5 μg/mL)
Chain of P-gp (P08183 whole entry): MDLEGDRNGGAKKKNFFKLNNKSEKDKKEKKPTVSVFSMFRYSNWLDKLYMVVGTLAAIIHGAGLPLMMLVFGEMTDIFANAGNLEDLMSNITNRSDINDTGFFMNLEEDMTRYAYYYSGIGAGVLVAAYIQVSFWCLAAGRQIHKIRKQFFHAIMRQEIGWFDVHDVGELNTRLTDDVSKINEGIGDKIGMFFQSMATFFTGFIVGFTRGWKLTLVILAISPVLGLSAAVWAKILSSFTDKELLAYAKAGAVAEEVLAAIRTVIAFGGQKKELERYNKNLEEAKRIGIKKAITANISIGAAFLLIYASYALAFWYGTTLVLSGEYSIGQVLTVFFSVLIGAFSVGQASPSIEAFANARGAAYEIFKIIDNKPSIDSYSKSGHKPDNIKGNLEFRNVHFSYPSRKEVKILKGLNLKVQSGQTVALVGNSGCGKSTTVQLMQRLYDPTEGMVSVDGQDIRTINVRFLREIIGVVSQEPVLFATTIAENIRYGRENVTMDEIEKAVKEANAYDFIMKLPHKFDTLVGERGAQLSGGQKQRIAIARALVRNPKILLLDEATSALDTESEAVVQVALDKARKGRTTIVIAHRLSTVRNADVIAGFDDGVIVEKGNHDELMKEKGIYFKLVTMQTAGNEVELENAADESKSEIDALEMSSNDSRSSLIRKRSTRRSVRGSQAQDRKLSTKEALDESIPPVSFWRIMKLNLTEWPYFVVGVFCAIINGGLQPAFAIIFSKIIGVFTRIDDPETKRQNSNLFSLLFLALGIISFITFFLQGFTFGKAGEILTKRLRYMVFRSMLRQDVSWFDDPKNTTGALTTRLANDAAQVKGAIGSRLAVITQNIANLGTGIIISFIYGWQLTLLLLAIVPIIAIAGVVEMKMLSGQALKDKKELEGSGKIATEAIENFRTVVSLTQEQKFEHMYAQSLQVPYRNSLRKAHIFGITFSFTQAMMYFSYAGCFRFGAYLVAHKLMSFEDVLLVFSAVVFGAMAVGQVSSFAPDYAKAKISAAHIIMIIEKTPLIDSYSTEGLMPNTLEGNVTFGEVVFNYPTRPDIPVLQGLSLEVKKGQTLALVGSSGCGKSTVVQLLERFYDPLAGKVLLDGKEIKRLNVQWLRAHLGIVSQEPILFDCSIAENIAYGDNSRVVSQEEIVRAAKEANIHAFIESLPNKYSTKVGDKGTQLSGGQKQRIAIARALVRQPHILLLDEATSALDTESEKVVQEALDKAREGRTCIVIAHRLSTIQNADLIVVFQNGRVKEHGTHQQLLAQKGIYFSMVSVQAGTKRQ

IC20 [2]: 1160 nM
SMILES: Cc1cn(-c2cc(NC(=O)c3ccc(C)c(Nc4nccc(-c5cccnc5)n4)c3)cc(C(F)(F)F)c2)cn1 [nilotinib, Nilotinib]
IC20 [1]: 240 nM
